Assay results reported in US20170112941A1, “VE-CADHERIN BINDING BIOCONJUGATE” (Symic IP, LLC, priority 2015, published 2017).
Ends that are not written are not given here. * marks the point of attachment. NHNH2 = NN*

Columns and labels:
[1] = target: T1, Recombinant VE cadherin/Fc chimera (Homo sapiens, UniProt P33151); experiment: VE-Cadherin Binding Assay (plate ELISA with biotinylated molecule, streptavidin-HRP)
T1 construct: purchased R&D systems 938-VC
Procedure: Recombinant VE cadherin/Fc chimera (R&D systems, Prod#938-VC) was prepared in 1× Phosphate Buffered Saline (PBS, Gibco, pH 7.4) at 5 μg/mL. 50 μL of this solution was incubated in each well of Costar high bind plate (Prod #9018) overnight at 4° C. The plate was washed three times with PBS. VE-cadherin coated wells were blocked using 0.5% non-fat dry milk and 50 μg/mL heparin sodium in 1×PBS. Blocked plates were then treated with a concentration gradient of eHep-Bbeta (biotinylated) molecule (eHep-Bbeta, 1:8:50). The eHep-Bbeta was dissolved in Tris-NaCl—CaCl2 at 1 mg/mL, serial dilution (1:3) 50 μL 2 hour RT. At the end of the incubation plate was washed three times with PBS.
Ultra-Streptavidin HRP (ThermoFisher Scientific, Prod# N504) was diluted 1:500 using 1% BSA, 1×PBS and 0.05% tween was used to detect the biotinylated molecule bound to rh VE-cadherin coated plates. 100 μL of streptavidin solution was incubated in each well for 20 minutes at RT. The plate was washed three times with 1×PBS. 100 μL of TMB substrate solution (Abcam, slowest kinetic rate) was added to each well and developed for 20 minutes in the dark. 25 μL of stop solution (0.64 M H2SO4 in water) was added to stop the reaction and absorbance was read using Molecular Device i3 at 450 nm.
This assay may be used to determine the binding affinity of the bioconjugates as well as the peptides alone.

HUVECs = experiment: HUVEC culture, thrombin challenge, pMLC/phalloidin fluorescence imaging; type: cell-based, human; details: thrombin 1 U/mL, eHep-Bbeta 100 μg/mL, 10 minutes at 37° C., FIG. 3
Procedure: HUVECs were grown to confluence in 24-well tissue culture treated plates (10000 cells per cm^2) for 3 days. The cells were cultured in vascular basal medium (ATCC, prod# PCS-100-030) supplemented with 0.2% bovine brain extract (BBE), 10 mM L-glutamine, 5 U/mL heparin sodium, 1 μg/mL hydrocortisone hemisuccinate, 50 μg/mL ascorbic acid, and 20% fetal bovine serum. The wells were washed three times with 1× phosphate buffered saline (PBS), and then were treated with medium alone, medium supplemented with thrombin at 1 U/mL, medium supplemented with thrombin at 1 U/mL and eHep-Bbeta at 100 μg/mL, medium supplemented with thrombin at 1 U/mL and heparin at 100 μg/mL for 10 minutes at 37° C. The wells were then washed three times with 1×PBS. Each wash was for 5 minutes. The cells were then fixed using 4% formalin in 1×PBS for 15 minutes at room temperature, washed four times with 1×PBS (each wash was for 10 minutes). Blocking buffer containing 5% normal goat serum, and 0.3% Triton-X 100 in 1×PBS was prepared and 500 μL was added to each well. Blocking was done for 1 hour at room temperature. Antibody dilution buffer containing 1% BSA, and 0.3% Triton-X 100 in 1×PBS was prepared. 200 μL of Rabbit anti pMLC diluted 1:50 using antibody dilution buffer was added to each well and incubated overnight at 4° C. […] The wells were then imaged using an EVOS fluorescence microscope.

[2] = test system: acute renal ischemic model; experiment: Renal Ischemia Reperfusion (acute renal ischemic model); type: in vivo; details: rat
Procedure: Kidney damage was assessed by measuring serum creatinine levels 24 hours post procedure, and by creatinine clearance measured at 24 hours and 7 days post procedure. In this study, the ischemia time was reduced here to produce a more moderate injury, and the bioconjugate was delivered to the femoral vein, rather than directly to the renal artery, in order to reduce procedure time. See, Verma, et al. “Renal Endothelial Injury and Microvascular Dysfunction in Acute Kidney Injury.” Seminars in nephrology. Vol. 35. No. 1. WB Saunders, 2015 and Urbschat, et al. “Combined peri-ischemic administration of BP 15-42 in treating ischemia reperfusion injury of the mouse kidney.” Microvascular research 101 (2015): 48-54. All test articles were formulated in 1×PBS at 5 mg/mL and 500 μL were delivered for an approximate dose of 10 mg/kg. 1.4. […] Animals were closed and monitored during recovery for 24 hours. • 1.5.8. […] If creatinine clearance was positive in the positive control or test article at 7 days, the animal was survived until day 28, at which point creatinine clearance was again be measured. […] Serum creatinine was measured in each animal at baseline (prior to procedure) and 24 hours post-procedure. • 1.7. Creatinine clearance was measured at 1 and 7 days post procedure. • 1.8. […] Serum creatinine and creatinine clearance levels measured at 24 hours was compared between groups using an unpaired t-test. […]

T1 sequence (P33151 with tags, fused parts or gaps limits assumed): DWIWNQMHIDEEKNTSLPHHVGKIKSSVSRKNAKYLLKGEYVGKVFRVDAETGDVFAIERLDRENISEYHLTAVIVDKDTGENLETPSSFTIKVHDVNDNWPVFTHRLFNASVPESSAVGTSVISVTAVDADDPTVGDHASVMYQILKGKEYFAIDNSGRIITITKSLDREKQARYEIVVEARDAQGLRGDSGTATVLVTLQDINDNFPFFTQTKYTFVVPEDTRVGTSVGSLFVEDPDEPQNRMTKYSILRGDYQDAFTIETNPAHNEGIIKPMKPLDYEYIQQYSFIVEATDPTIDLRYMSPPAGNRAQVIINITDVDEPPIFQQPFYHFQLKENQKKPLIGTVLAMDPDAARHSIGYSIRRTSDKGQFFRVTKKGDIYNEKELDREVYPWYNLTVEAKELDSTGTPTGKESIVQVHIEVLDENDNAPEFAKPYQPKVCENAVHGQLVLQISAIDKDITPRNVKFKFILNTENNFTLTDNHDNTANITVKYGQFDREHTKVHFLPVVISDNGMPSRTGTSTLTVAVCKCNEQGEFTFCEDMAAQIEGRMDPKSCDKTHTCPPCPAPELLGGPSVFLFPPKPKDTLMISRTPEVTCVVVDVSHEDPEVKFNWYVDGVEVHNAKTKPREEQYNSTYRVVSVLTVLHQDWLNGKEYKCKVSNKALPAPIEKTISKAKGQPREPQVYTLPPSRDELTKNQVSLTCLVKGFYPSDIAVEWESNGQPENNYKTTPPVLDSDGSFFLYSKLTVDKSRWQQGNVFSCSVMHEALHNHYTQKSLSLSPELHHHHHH

effect of Tris-NaCl-CaCl2 buffer on molecule binding to VE-cadherin ([1]; Tris-NaCl-CaCl2 buffer): enhances molecule binding significantly
Substance: eHep-Bbeta: Heparin (MWavg 16 kDa) coupled by EDC to Bbeta peptide GHRPLDKKREEAPSLRPAPPPISGGGYR(GSG)-hydrazide; about 3.7 peptides/heparin (GHRPLDKKREEAPSLRPAPPPISGGGYRGSG-NHNH2; also: coupled by EDC to heparin (MWavg 16 kDa), about 3.7 peptides/heparin, attachment site not given here)
binding to VE-cadherin ([1]; biotinylated eHep-Bbeta (1:8:50), 1 mg/mL in Tris-NaCl-CaCl2, serial dilution 1:3, 2 hour RT, absorbance 450 nm, FIG. 2): binds to VE-cadherin in a dose dependent manner | endothelial cell barrier function (HUVECs): preserves endothelial cell barrier function | protection from renal damage upon reperfusion, compared with active control (peptide alone) ([2]; 30 minutes ischemia, approximate dose 10 mg/kg into femoral vein immediately after clamp removal, FIG. 4): protects from renal damage upon reperfusion better than active control (peptide alone) | kidney damage (serum creatinine 24 hours, creatinine clearance 24 hours and 7 days post procedure) ([2]; treatment immediately following renal reperfusion, approximate dose 10 mg/kg, femoral vein): inhibits kidney damage
